Assays:
[1] = system: linoleate isomerase of L. reuteri PYR8; conditions: for Rate of converting: 36-hour PYR8 cells
Procedure: Fatty acids were extracted with chloroform:methanol (2:1) and 4% KCl. Hexadecanoic acid (HDA) was added as an internal standard. The extraction mix was centrifuged at 2000 g for 5 minutes, then the chloroform fraction containing the fatty acids (bottom fraction) was removed and dried down by nitrogen gas. The fatty acids were suspended in 4% HCl in anhydrous methanol, and were methylated in a 60° C. water bath for 20 minutes. Finally, drops of double distilled water (DDW) were added to the methylation tube and hexane was used to re-extract the fatty acid. After washing twice with DDW and dehydrating by sodium sulfate, 1-2 μl of the hexane fraction was injected into a model 5890 series II gas chromatograph fitted with a model 3396A integrator (Hewlett-Packard Company, Avondale, Pa.) for fatty acid analysis. Fatty acid peaks were separated with a fused silica capillary column, 60 m by […] I.D. with a 0.25 μm film thickness (Supelco Park, Bellefonte, Pa.).
Thirty-six-hour cultures were diluted in 0.1M Tris-HCl (pH 8.55) buffer to 1:10, 1:15, 1:20 (w/v). Five ml of each suspension were reacted with 2.0 mg of linoleic acid for 1, 2, or 3 hours at 12° C. At 1:15, five ml were incubated with 1.0 mg, 1.5 mg, 2.0 mg and 3.0 mg of alpha-linolenic acid for 1 hour, or with 2.0 mg of gamma-linolenic acid for 1, 2, 3, 4, or 24 hours at 4° C. Fatty acids were extracted with chloroform:methanol and assayed by the GC method.

[2] = system: linoleate isomerase of L. reuteri PYR8; assay: Substrates tested with cells of L. reuteri PYR8, product analysed by GC; assay type: biochemical, Lactobacillus reuteri PYR8 (ATCC 55739); conditions: for Major Products (putative) of the linoleate isomerase: 0.2 mg substrate reacted with 20 mg PYR8 cells, GC; for Activity of the organism / consumption relative to other substrates: effect of extra double bonds at position 6 and/or 15; for Activity as substrate of the Lactobacillus: unsaturated fatty acids lacking double bonds at both positions 9 and 12
Procedure: ^a Each substrate (0.2 mg) was reacted with the cells (20 mg) of L.
reuteri PYR8, and product was analyzed by GC, as described in methods.
Fatty acids were extracted with chloroform:methanol (2:1) and 4% KCl. Hexadecanoic acid (HDA) was added as an internal standard. […] Fatty acid peaks were separated with a fused silica capillary column, 60 m by […] I.D. with a 0.25 μm film thickness (Supelco Park, Bellefonte, Pa.).

[3] = system: mammary cancer; conditions: rodents; cited from earlier work
[4] = system: atherosclerosis; conditions: rabbits and hamsters; cited from earlier work
[5] = mouse, rat and chick models; cited from earlier work
[6] = system: epidermal carcinogenesis and forestomach neoplasia; conditions: mice; cited from earlier work
[7] = system: carcinogen-induced rat mammary tumors; conditions: cited from earlier work
[8] = rabbits fed an atherogenic diet; cited from earlier work
[9] = chicks, mice and rats; cited from earlier work

Compound | Rate of converting [1] | Major Products (putative) of the linoleate isomerase [2] | Activity as substrate of the Lactobacillus [2] | further results
CC/C=C\C/C=C\C/C=C\CCCCCCCC(=O)O [Alpha-linolenic acid] | 8.0 mg/hour/gram cells | cis9, trans11, cis15 | – | Amount of substrate converted in one hour ([1]; dilution 1:15, five ml, 4° C.): 2.5 mg; Activity of the organism / consumption relative to other substrates [2]: promoted
CCCCC/C=C\C/C=C\C/C=C\C/C=C\CCCC(=O)O [Arachidonic acid] | – | None | Inactive | –
CCCCC/C=C\C/C=C\C/C=C\CCCCC(=O)O [Gamma-linolenic acid] | less than 0.25 mg/hour/gram cells | cis6, cis9, trans11 | – | Conversion to cis-6, cis-9, trans-11 isomer in 24 hours ([1]; dilution 1:15, 2.0 mg substrate, 4° C.): unable to convert; Activity of the organism / consumption relative to other substrates [2]: reduced
CCCCC/C=C\C/C=C\CCCCCCCC(=O)O [Linoleic acid] | 3.2 mg/hour/gram cells | cis9, trans11 isomer | – | Effect on mammary cancer [3]: associated with enhancing mammary cancer
CCCCCCCC/C=C\CCCCCCCC(=O)O [Oleic acid] | – | None | Inactive | –
Conjugated linoleic acid [CLA] | – | – | – | Inhibition of atherosclerosis [4]: inhibits atherosclerosis; Body fat [5]: reduces body fat; Inhibition of epidermal carcinogenesis and forestomach neoplasia [6]: effective inhibitor; Inhibition of carcinogen-induced mammary tumors [7]: effective inhibitor; Ratio of LDL-cholesterol to HDL-cholesterol [8]: can decrease; Prevention of adverse effects caused by immune stimulation [9]: can prevent adverse effects
Octadecanoic acid | – | None | Inactive | –
